Data set [1] relates to A549 cells. Put plainly: MTT cytotoxicity assay on A549 cells. The format is cell-based, human. The conditions noted are these: mean ± SD, n = 3, read-out: IC50, cytotoxicity against A549 cells. From the text: (§1) The purity of the tested compounds was more than 98%. The cytotoxic effects of isolated phenanthrenes on A549 and BEAS-2B cells were examined by MTT experiments as described in our previous report.
A general note: Tetrazolium assays rely on reduction of a dye to a coloured formazan, in cell work by metabolically active cells.

Data set [2] relates to A549 cells. Put plainly: Apoptosis by flow cytometry (Annexin V/PI). The format is cell-based, human. The conditions noted are these: 48-h treatment, control 1.21 ± 0.37%. As to the method:
Quadrants 2 (Annexin V+/PI+) and 3 (Annexin V+/PI−) pointed to the percentage of apoptotic cells. As for the control group, the apoptosis rate was only 1.21 ± 0.37%. […] The data disclosed that compound 1 greatly promoted the apoptosis of A549 cells, especially in the high-concentration group (12.5 µM).
The A549 cells were treated with compound 1 (3.13, 6.25, and 12.5 μM), and the cell apoptosis was detected by flow cytometry assay as described in our previous report.
A general note: Flow cytometry measures light scatter and fluorescence of single cells or particles in a stream.

Data set [3] concerns A549 cells. The data set can be described thus: Cell cycle analysis by flow cytometry. The format is cell-based, human. The conditions noted are these: 48 h; for percentage of G0/G1 phase cells / percentage of S phase cells: Figure 3C; for percentage of G2/M phase cells: untreated control 7.41 ± 0.79%. On the procedure: According to the manufacture’s instructions, the cells were treated with compound 1 (3.13, 6.25, and 12.5 μM) for 48 h. Then, they were cultured with 500 μL staining solution (RNase A:PI = 1:9) for 1 h at room temperature without light after fixation with 70% pre-chilled ethanol for 2 h. The DNA content was instantly detected with a BD FACSCanto II flow cytometer (BD Biosciences, Franklin Lakes, NJ, USA).

In a further data set the test system is Akt. The data set can be described thus: Western blot, Akt phosphorylation in A549 cells. The format is cell-based, human. To be noted: A549, 3.13, 6.25, and 12.5 µM, 48 h; p < 0.05 at 3.13 μM, p < 0.01 at 6.25 and 12.5 μM vs control. As to the method: (§2) SDS–PAGE and PVDF membranes were used to separate and transfer the protein, respectively. […] The membranes were washed with TBST and incubated with an HRP-conjugated secondary antibody for 1 h at 37 °C. Finally, the protein bands were detected with a Tanon 5200 chemiluminescent imaging system (Tanon, Shanghai, China).
On the technique in general: In western blotting, separated proteins are transferred to a membrane and probed.

A further data set has as its system Bax. Put plainly: Western blot, Bax expression in A549 cells. The format is cell-based, human. The conditions noted are these: A549, 6.25 and 12.5 μM, 48 h; p < 0.01 vs control. On the procedure:
as §2

Data set [4] relates to A549 cells. The data set can be described thus: Transwell migration assay. To be noted: 24 h, control 100%. It counts as cell-based, human. As to the method: The migratory effect of compound 1 (3.13, 6.25, and 12.5 μM) on A549 cells was further detected by using transwell chambers. Briefly, the cells treated with compound 1 were placed into the upper wells, while the medium with 10% FBS was added to the bottom wells. After a 24-h incubation, non-migrated cells were cleaned up, and the migrated cells were fixed for 30 min with 4% paraformaldehyde and dyed by 0.1% crystal violet. The images and the cell numbers were obtained by the Leica microscope and ImageJ, respectively.

Data set [5] relates to A549 cells. The data set can be described thus: Wound healing assay. It counts as cell-based, human. The conditions noted are these: 24 h, control 56.46 ± 4.46%. On the procedure: Cells were placed in 6-well plates for the wound healing test. The scratches were formed using a sterile 200-µL pipette tip when the cells treated with compound 1 (3.13, 6.25, and 12.5 μM) had grown to 90% confluence. After a 24-h incubation, the images were obtained with the Leica microscope and the scratch area was calculated with the ImageJ.

Data set [6] can be described thus: MTT cytotoxicity assay on BEAS-2B cells. The format is cell-based. The conditions noted are these: BEAS-2B cells (normal human lung cells), BEAS-2B normal human lung cells, read-out: IC50, cytotoxic effect on BEAS-2B cells.
Description: as §1

The next data set deals with Bcl-2. Put plainly: Western blot, Bcl-2 expression in A549 cells. The format is cell-based, human. The conditions noted are these: A549, 3.13, 6.25, and 12.5 μM, 48 h; p < 0.01 vs control. As to the method:
as §2

The test system of data set [7] is A549 cells. Put plainly: EdU proliferation experiment. The conditions noted are these: 48 h, control 100%. The format is cell-based, human. On the procedure: The cells were digested by trypsin and cultivated in 96-well plates (3.5 × 10^3 cells per well) for 24 h. They were incubated with compound 1 (3.13, 6.25, and 12.5 μM) for 48 h. Next, prepared EdU-labeling solution (10 µM) was used to stain the cells in an incubator at 37 °C for 2 h. The cells were fixed for 15 min with 4% cold paraformaldehyde. After that, Triton X-100 (0.3%) and Click-iT reaction cocktail were successively used to handle cells. Finally, DAPI staining was applied to the cells to counterstain them. A Leica DMI3000B inverted fluorescence microscope (Leica, Wetzlar, Germany) was used to capture the fluorescent images. In addition, to count the cells, ImageJ software (version 1.8.0) (National Institutes of Health, Bethesda, MD, USA) was used. EdU positive cells (%) = (green EdU-stained cells/blue DAPI-stained cells) × 100.

For the next data set, the system named is MEK1/2. Put plainly: Western blot, MEK1/2 phosphorylation in A549 cells. It counts as cell-based, human. The conditions noted are these: A549, 3.13, 6.25, and 12.5 μM, 48 h; p < 0.01 vs control. As to the method:
as §2

For another data set, the system named is ERK1/2. Put plainly: Western blot, ERK1/2 phosphorylation in A549 cells. The format is cell-based, human. The conditions noted are these: A549, 3.13, 6.25, and 12.5 µM, 48 h; p < 0.05 at 3.13 μM, p < 0.01 at 6.25 and 12.5 μM vs control. As to the method: as §2

Values joined by “and” are separate entries in the source; they are usually repeats but may differ in a detail not shown here. Equal entries are not always repeated. Where two headings read alike, the source gives them in different places.

`COc1cc(O)c(-c2c(O)cc(OC)c3c2ccc2cc(O)ccc23)c2ccc3cc(O)ccc3c12` [Compound 6, blestriarene C]: the half-maximal inhibitory concentration (IC50) (commonly the concentration that gives 50% inhibition) with A549 cells [1] (A549 cells) is 9.45 ± 0.52 µM; with A549 cells [1] (Homo sapiens, A549, A549 cells), less than 10 µM.
In the same order, the values of `COc1cc(O)cc2c1-c1cc(-c3c(O)cc(OC)c4c3CCc3cc(O)ccc3-4)c(O)cc1CC2` [Compound 4, gymconopin C] are 9.91 ± 0.68 µM and less than 10 µM.
Consider `COc1cc(O)cc2c1-c1ccc(O)c(-c3c(O)cc(OC)c4c3CCc3cc(O)ccc3-4)c1CC2` [Compound 1, 4,5′-dimethoxy-9,9′,10,10′-tetrahydro-[1,1′-biphenanthrene]-2,2′,7,7′-tetraol], for which the “apoptosis rate (Annexin V+/PI+ and Annexin V+/PI−)” value stood at 2.57 ± 0.53% in the data set on A549 cells [2] (A549, 3.13 µM); 12.25 ± 2.21% in the data set with A549 cells [2] (A549, 6.25 µM); 49.79 ± 8.54% in the data set with A549 cells [2] (A549, 12.5 µM). Also, the “percentage of G0/G1 phase cells” value in the data set on A549 cells [3] (A549, 3.13 μM) came out at 76.42%; in the data set on A549 cells [3] (A549, 6.25 μM) it was 70.16%; with A549 cells [3] (A549, 12.5 μM), 50.11%. Also, the “percentage of S phase cells” value in the data set on A549 cells [3] (A549, 3.13 μM) is recorded as 11.73%; in the data set on A549 cells [3] (A549, 6.25 μM), 15.31%; with A549 cells [3] (A549, 12.5 μM) it was 22.81%. The “percentage of G2/M phase cells” value in the data set on A549 cells [3] (A549, 3.13 μM) is 11.85 ± 1.26% and 11.85%; in the data set with A549 cells [3] (A549, 6.25 μM), 14.53 ± 1.75% and 14.53%; in the data set with A549 cells [3] (A549, 12.5 μM) it was 27.08 ± 2.65% and 27.08%. Besides, the “expression ratio of p-Akt/Akt” value with Akt is recorded as “significantly suppressed”. In addition, the Bax protein levels result in the data set with Bax was “increased”. Moreover, the IC50 in the data set on A549 cells [1] (A549 cells) was 6.86 ± 0.71 µM; in the data set with A549 cells [1] (Homo sapiens, A549, A549 cells), less than 10 µM; in data set [6] it was 15.2 ± 1.62 µM. Moreover, the “migrated cell numbers (transwell)” value with A549 cells [4] (A549, 3.13 µM) stood at 72.09 ± 4.65%; in the data set with A549 cells [4] (A549, 6.25 µM) it was 29.45 ± 2.92%; in the data set on A549 cells [4] (A549, 12.5 µM), 10.19 ± 1.25%. The “migration rate (wound healing)” value is on record as 31.10 ± 2.92% in the data set on A549 cells [5] (A549, 3.13 µM); 15.23 ± 1.81% with A549 cells [5] (A549, 6.25 µM); 11.01 ± 1.81% in the data set on A549 cells [5] (A549, 12.5 µM). In addition, in the data set with Bcl-2, the Bcl-2/Bax ratio entry is “reduced”. For the same molecule, in the data set on Bcl-2, the Bcl-2 protein levels result is given as “significantly decreased”. For the same molecule, the “percentage of EdU-positive cells” value with A549 cells [7] (A549, 3.13 μM) came to 67.66 ± 4.51%; with A549 cells [7] (A549, 6.25 μM), 56.33 ± 4.50%; in the data set on A549 cells [7] (A549, 12.5 μM), 34.01 ± 4.58%. Further, in the data set with MEK1/2, the “expression ratio of p-MEK/MEK” value is given as “significantly suppressed”. Also, the “expression ratio of p-ERK/ERK” value with ERK1/2 is on record as “significantly suppressed”.
Regarding `COc1cc(O)c(-c2c(O)cc3c(c2OC)-c2ccc(O)cc2CC3)c2c1-c1ccc(O)cc1CC2` [Compound 3, blestrianol A], in the data set with A549 cells [1] (Homo sapiens, A549, A549 cells), the IC50 was found to be 10.5 ± 2.55 µM.
Same read-out and setting: to `COc1cc(O)c(O)c2c1-c1ccc(O)cc1CC2` [Compound 10, 4-methoxy-9,10-dihydrophenanthrene-1,2,7-triol] belongs 16.3 ± 2.22 µM.
Regarding `COc1cc(O)c(Cc2ccc(O)cc2)c2c1-c1ccc(Oc3c(O)cc(OC)c4c3CCc3cc(O)ccc3-4)cc1CC2` [Compound 8, blestanol C], the half-maximal inhibitory concentration (IC50) with A549 cells [1] (A549 cells) is 8.62 ± 0.64 µM; in the data set with A549 cells [1] (Homo sapiens, A549, A549 cells) it was less than 10 µM.
As for `COc1cc(O)c(Cc2ccc(O)cc2)c2ccc3cc(O)ccc3c12` [Compound 17, 1-(p-hydroxybenzyl)-4-methoxyphenanthrene-2,7-diol], in the data set with A549 cells [1] (Homo sapiens, A549, A549 cells), the IC50 was found to be 32.6 ± 2.33 µM.
Take `COc1cc(O)c(Cc2ccc(O)cc2)c2c1-c1ccc(O)cc1CC2` [Compound 12, 1-(p-hydroxybenzyl)-4-methoxy-9,10-dihydrophenanthrene-2,7-diol]: the IC50 in the data set on A549 cells [1] (Homo sapiens, A549, A549 cells) came to 33.3 ± 0.49 µM.
Same read-out and setting: with `COc1cc2ccc3cc(O)ccc3c2c(OC)c1O` [Compound 16, 3,7-dihydroxy-2,4-dimethoxyphenanthrene] the figure was 63.8 ± 4.67 µM; with `COc1cc(O)c(Cc2ccc(O)cc2)c2c1-c1cc(Cc3ccc(O)cc3)c(O)cc1CC2` [Compound 14, 1,6-bis(p-hydroxybenzyl)-4-methoxy-9,10-dihydrophenanthrene-2,7-diol], 12 ± 0.79 µM.
Same read-out and setting: to `COc1c(O)ccc2c1ccc1c(-c3c(O)cc(OC)c4c3ccc3cc(O)ccc34)c(O)cc(OC)c12` [Compound 5, bleformin G] belongs more than 100 µM.
For the molecule `COc1ccc(Cc2c(O)cc(O)c3c2CCc2cc(OC)ccc2-3)cc1` [Compound 13, pleioanthrenin], the half-inhibitory concentration (IC50) was 9.52 ± 0.47 µM in the data set with A549 cells [1] (A549 cells) and less than 10 µM in the data set on A549 cells [1] (Homo sapiens, A549, A549 cells).
On to `COc1cc(O)cc2c1-c1ccc(O)cc1CC2` [Compound 9, 2,7-dihydroxy-4-methoxy-9,10-dihydrophenanthrene], for which the IC50 with A549 cells [1] (Homo sapiens, A549, A549 cells) was determined as 51.5 ± 1.87 µM.
With `COc1cc(O)c(-c2c(O)cc3c(c2OC)-c2ccc(O)c(Cc4ccc(O)cc4)c2CC3)c2c1-c1ccc(O)cc1CC2` [Compound 2, 4,4′-dimethoxy-8′-(p-hydroxybenzyl)-9,9′,10,10′-tetrahydro-[1,3′-biphenanthrene]-2,2′,7,7′-tetraol], the 50% inhibitory concentration (IC50) was 8.75 ± 0.61 µM with A549 cells [1] (A549 cells) and less than 10 µM with A549 cells [1] (Homo sapiens, A549, A549 cells).

The values are drawn from PMC9181924, “Antiproliferative and Proapoptotic Effects of Phenanthrene Derivatives Isolated from Bletilla striata on A549 Lung Cancer Cells” (Molecules, 2022).
